Test results published in US12589085B2, “Use of diaminoguanidine derivative and feed composition thereof in preparation of veterinary drug” (priority 2019, dated 2026).
Where two headings read alike, the source gives them in different places.

What was measured:
[1] = tested on: sows suffering from endometritis; assay: Efficacy on endometritis in postpartum sows; assay type: in vivo, pig; details: uterine perfusion 10 mg/kg once a day for 7 days; 30 sows
Procedure: Sows suffering from endometritis in 5 different pig farms were selected, 30 cases in each farm, 150 cases in total, were randomly divided into groups, and a non-treatment control was set up, and the sick pigs in each experimental group were perfused into the uterus. Agents, the main components of the uterine perfusion for treatment groups 1-4 were Compound 1, Compound 2, Compound 3, and Compound 4, respectively, at a dose of 10 mg/kg, and the control group was given an equal volume of normal saline. The frequency of administration is once a day for 7 consecutive days.

TA97 = assay: Salmonella typhimurium reverse mutation assay, plate incorporation, TA97; details: positive control, TA97 −S9, 50 μg/100 μL dish
Procedure: (§1) Test strains: A set of standard test strains of TA97, TA98, TA100 and TA102 were provided by the Jiangsu Provincial Center for Disease Control and Prevention, and stored at −80° C. The test bacteria were cultured in a 37° C. water bath with shaking for 24 hours and stored at 4° C.
(§2) Enrichment culture: The main plate or the frozen-preserved strain culture was inoculated into nutrient broth, and cultivated for 10 hours at 37° C. with shaking (100 times/min). The strain culture should be more than 1˜2×10^9 viable bacteria per milliliter.
(§3) According to the physicochemical properties of the test article, the Compound 2 was prepared before test: 0.1 g of Compound 2 white powder was under UV sterilization for 2 h before test, and dissolved in 10 mL of dimethyl sulfoxide (DMSO), and then diluted to the desired concentration for the use (fresh preparation). […]
(§4) Preparation of test agent solution: 0.1 mL of test agent solution was added to each dish, and the highest concentration and volume of test agent solution to be prepared were determined according to the set maximum test dose of 10 mg/mL. The amount of the test agent to be weighed was calculated when the solution was prepared. […]
(§5) Judgment and evaluation of results: The results of each test were sorted out, and the number of strains turned into colonies was expressed as (x±SD)/dish. […]

TA98 = assay: Salmonella typhimurium reverse mutation assay, plate incorporation, TA98; details: positive control, TA98 −S9, 50 μg/100 μL dish
Procedure: as §1, §2, §3, §4, §5

TA102 = assay: Salmonella typhimurium reverse mutation assay, plate incorporation, TA102; details: positive control, TA102 −S9, 1.0 μL/100 μL dish
Procedure: as §1, §2, §3, §4, §5

sperm = details: oral once a day 5 days; for Total number of abnormal sperm / abnormal sperm: Amorphous / abnormal sperm: Banana shape / abnormal sperm: Double head / abnormal sperm: Double tail / abnormal sperm: Fat head / abnormal sperm: Fold tail / abnormal sperm: No hook: Day 35, 10000 sperm; for Number of Abnormal sperm (x ± SD) / Sperm deformity: Day 35, n = 10
Procedure: Experimental animals: 60 clean-grade healthy male ICR mice having the average weight of 18-20 g, purchased from the Comparative Medicine Center of Yangzhou University.
Reagents: Test agent, Compound 2, provided by Guangzhou Insighter Biotechnology Co., Ltd., was prepared into a suspension of the required concentration with 1.0% sodium carboxymethyl cellulose before use; the mutagenic positive control article of cyclophosphamide with the content of 99.00%; other reagents include sodium chloride, methanol, and eosin, all of analytical grade; self-prepared physiological saline; self-prepared eosin aqueous solution (2%).
The test article, Compound 2 was diluted with 1.0% sodium carboxymethyl cellulose as a solvent, and it was given by oral in different concentrations and the same volume. There is also a positive control and a negative (solvent) control. The cyclophosphamide was selected as the positive control (40 mg/kg).
Grouping of experimental animals: 60 healthy male mice were individually weighed, labeled and numbered, and they were divided into 5 groups with 12 mice in each group using a completely random method. It was ensured that 10 animals in each group survive for sampling and film making after administration.
Administration: The administration method is carried out according to GB15193.7-2003. The test group, the negative control and the positive control are all given the test article by oral once a day for 5 consecutive days. The weight of the mouse for each administration was weighed, and the volume of the test article that each mouse should administer was calculated according to the requirements of the mouse 0.2 mL/10 g b.w.
Sampling and sample preparation: The mice were sacrificed by cervical dislocation on the Day 35 after the first administration, and sampling and film making were performed. 10 mice were sampled in each dose group. The abdominal cavity was cut, the epididymis on both sides were separated and extracted, and put in a petri dish containing 2 mL of normal saline; The mice were longitudinally cut with ophthalmological scissors for 2 times, the normal saline in it was pipetted with a straw for several times, and let stand for 3 min; the tissue fragments were filtered with a 4-layer of lens cleaning paper, 1 drop of the filtrate was drawn onto the glass slide, the slide was pushed with 4 slides per mouse; the slide in the air dried naturally, and fixed with methanol for 10 minutes, and dried; stained with 2% eosin for 1 h, the dye solution was gently washed off with water, and it was dried naturally before microscopic examination.
Data collation and analysis: The number of normal sperm, the number of abnormal sperm and the number of various types of abnormal sperm were read and counted in each dose group of mice. The sperm abnormality rate (%) of mice in each dose group and the percentage (%) of various types of abnormal sperm were calculated, and the standard deviation of the sperm abnormality rate of mice was also calculated in each dose group. Calculation as follows:
The sperm abnormality rate of mice in each dose group was statistically compared with the sperm abnormality rate of mice in the negative (solvent) control. The experimental data was processed by SPSS 11.0 statistical software, and the analysis results were expressed as x±SD, and the incidence of sperm abnormalities was statistically processed according to the X^2 (α=0.05).
If the dose of the test group has caused the animal to die, while the sperm abnormality has not increased, the result can be judged to be negative.

Compound: N=C(N/N=C/c1ccc([N+](=O)[O-])cc1)N/N=C/c1ccc([N+](=O)[O-])cc1 [Compound 1]
- Cure rate [1]: 93.3%
- Treatment effects: sows cured [1]: 27 sows were cured,
- Treatment effects: sows improved in symptoms [1]: 1 sow improved sows

Compound: N=C(N/N=C/c1ccc(OCc2ccccc2)cc1)N/N=C/c1ccc(OCc2ccccc2)cc1 [Compound 3]
- Cure rate [1]: 90.0%
- Treatment effects: sows cured [1]: 25 sows were cured,
- Treatment effects: sows improved in symptoms [1]: 2 sows improved

Compound: COC(=O)c1ccc(/C=N/NC(=N)N/N=C/c2ccc(C(=O)OC)cc2)cc1 [Compound 4]
- Cure rate [1]: 100%
- Treatment effects: sows cured [1]: 25 sows were cured,
- Treatment effects: sows improved in symptoms [1]: 5 sows improved

Compound: CN(C)c1ccc(N=NS(=O)(=O)[O-])cc1.[Na+] [Dixon, reference compound]
- reverting colonies per dish (x ± SD) (TA97; First): >2000
- reverting colonies per dish (x ± SD) (TA97; Second): >2000
- reverting colonies per dish (x ± SD) (TA98; First): 932.00 ± 57.17
- reverting colonies per dish (x ± SD) (TA98; Second): >2000

Compound: COS(C)(=O)=O [Methyl Methanesulfonate, methyl methanesulfonate, reference compound]
- reverting colonies per dish (x ± SD) (TA102; First): 392.67 ± 12.86
- reverting colonies per dish (x ± SD) (TA102; Second): >2000

Compound: isopropoxyphenylguanidine [Compound 2]
- Total number of abnormal sperm (sperm; high 500 mg/kg): 224
- abnormal sperm: Amorphous (sperm; high 500 mg/kg): 106
- abnormal sperm: Banana shape (sperm; high 500 mg/kg): 22
- abnormal sperm: Double head (sperm; high 500 mg/kg): 5
- abnormal sperm: Double tail (sperm; high 500 mg/kg): 9
- abnormal sperm: Fat head (sperm; high 500 mg/kg): 10
- abnormal sperm: Fold tail (sperm; high 500 mg/kg): 9
- abnormal sperm: No hook (sperm; high 500 mg/kg): 63
- Number of Abnormal sperm (x ± SD) (sperm; high 500 mg/kg): 22.40 ± 1.84
- Sperm deformity (sperm; high 500 mg/kg): 2.17 ± 0.16%
- Total number of abnormal sperm (sperm; low 125 mg/kg): 223
- abnormal sperm: Amorphous (sperm; low 125 mg/kg): 118
- abnormal sperm: Banana shape (sperm; low 125 mg/kg): 16
- abnormal sperm: Double head (sperm; low 125 mg/kg): 4
- abnormal sperm: Double tail (sperm; low 125 mg/kg): 6
- abnormal sperm: Fat head (sperm; low 125 mg/kg): 5
- abnormal sperm: Fold tail (sperm; low 125 mg/kg): 5
- abnormal sperm: No hook (sperm; low 125 mg/kg): 69
- Number of Abnormal sperm (x ± SD) (sperm; low 125 mg/kg): 22.30 ± 1.70
- Sperm deformity (sperm; low 125 mg/kg): 2.15 ± 0.16%
- Total number of abnormal sperm (sperm; medium 250 mg/kg): 221
- abnormal sperm: Amorphous (sperm; medium 250 mg/kg): 111
- abnormal sperm: Banana shape (sperm; medium 250 mg/kg): 21
- abnormal sperm: Double head (sperm; medium 250 mg/kg): 5
- abnormal sperm: Double tail (sperm; medium 250 mg/kg): 7
- abnormal sperm: Fat head (sperm; medium 250 mg/kg): 7
- abnormal sperm: Fold tail (sperm; medium 250 mg/kg): 5
- abnormal sperm: No hook (sperm; medium 250 mg/kg): 65
- Number of Abnormal sperm (x ± SD) (sperm; medium 250 mg/kg): 22.10 ± 1.37
- Sperm deformity (sperm; medium 250 mg/kg): 2.14 ± 0.14%
